Measured values taken from patent US9097722B2, “PARP substrates and biomarkers” (Board of Regents, The University of Texas System, priority 2012, dated 2015).
“Also recorded” adds a separate entry of the source.

Key:
PARP [1] = assay: Immunoblotting of protein PARylation in cells after MNNG or H2O2 treatment; format: cell-based, human; conditions: for H2O2-induced PARP activation (immunoblotting): 1 μM treatment
Excerpt: We sought to develop an approach towards a global characterization of Asp/Glu-ADP-ribosylation. […] The major cellular enzymatic activity for degrading PAR is from poly-ADP-ribose glycohydrolase (PARG)^2.
Cells and Reagents: HCT116 and HEK293T cells were purchased from ATCC and were maintained in Dulbecco's modified Eagle's medium (DMEM) supplemented with 10% fetal bovine serum. PARP inhibitors were purchased from Selleck. […] Other chemicals and reagents were obtained from Sigma unless indicated otherwise.
Immunoblotting analysis: Samples were subjected to electrophoresis using the standard SDS-PAGE method. Proteins were transferred to a nitrocellulose membrane (Whatman). Membranes were blocked with a TBST buffer (25 mM Tris-HCl, pH 7.5, 150 mM NaCl, 0.05% Tween 20) containing 3% nonfat dried milk, and probed overnight with primary antibodies at 4° C. and for 1 h at RT with peroxidase-conjugated secondary antibodies. Blots were developed using enhanced chemiluminescence, exposed on autoradiograph film and developed using standard methods.

PARP [2] = assay: SILAC quantitative mass spectrometric analysis of the Asp/Glu-ADP-ribosylated proteome in HCT116 shPARG cells; format: cell-based, human; conditions: for change in protein Asp/Glu-ADP-ribosylation compared with that of Olaparib: 1 μM
Procedure: SILAC cell culture: Cells (HCT116 shPARG) were grown in the SILAC media as described previously^23. Both light and heavy DMEM were supplemented with 10% dialyzed FBS (Invitrogen). Where indicated, cells were pretreated with 1 μM Olaparib for 40 min and were stimulated with 2 mM H2O2 for 5 min We performed two experiments using this experimental design with single labeling with Lys (sample digested with Lys-C) or double labeling with Lys and Arg (sample digested with trypsin). Each experiment was composed of two technical replicate analyses. The same experiment (Lys labeling only) was repeated for four other PARP inhibitors, including A966492 (1 μM), AG14361 (1 μM), Iniparib (50 μM) and 3-AB (50 μM).
Sample preparation for mass spectrometric analysis: Cells were lysed in SDS lysis buffer (1% SDS, 10 mM HEPES pH 7.0, 2 mM MgCl2, 500 U Benzonase). Lysates were washed with SDS lysis buffer for three times using centricon ultrafiltration units (MWCO=10,000 Da, Millipore). Lysates were reduced by adding DTT to a final concentration of 3 mM, followed by incubation at room temperature for 20 min Cysteines were alkylated by adding iodoacetamide to a final concentration of 50 mM, followed by incubation in the dark for 20 min Lysates were digested with LysC (Wako) or trypsin (Promega) at a 1:100 (enzyme:substrate) ratio for 2 hrs at RT. pH of the lysates were adjusted to 8.5 and the lysates were incubated with m-aminophenylborinic acid agarose for 1 hr at RT. Beads were washed with the SDS wash buffer (1% SDS, 100 mM HEPES pH 8.5, 150 mM NaCl) for three times, and then the wash buffer (100 mM HEPES pH 8.5, 150 mM NaCl) for five times. Beads were incubated with 0.5 M NH2OH overnight. Released peptides were desalted on SepPak C18 columns (Waters) according to manufacturer's instructions.
Mass spectrometry analysis and data processing: Samples were analyzed by LC-MS/MS on an LTQ-Velos Pro Orbitrap mass spectrometer (Thermo Fischer Scientific, San Jose, Calif.) using a top twenty method^23. MS/MS spectra were searched against a composite database of the human IPI protein database and its reversed complement using the Sequest algorithm. Search parameters allowed for a static modification of 57.02146 Da for Cys and a dynamic modification of addition of 15.0109 Da to Asp and Glu, and, when applicable, the stable isotope (10.00827 Da) and (8.01420 Da) on Arg and Lys, respectively. […] Localization of ADP-ribosylation sites was assessed by the ModScore algorithm based on the observation of site-specific fragment ions^25. Sites with scores≧13 (p≦0.05) were considered localized. Peptide quantification was performed as previously described^23 and ADP-ribosylation motifs were extracted using the Motif-X algorithm using a significance threshold of P<0.001^26.

tankyrase = conditions: cited from earlier work
[3] = 1 μM Olaparib, 2 mM H2O2, HCT116 shPARG

SMILES: CN(C)Cc1ccc(-c2nc3cccc4c3n2CCNC4=O)cc1 [AG14361]
- H2O2-induced PARP activation (immunoblotting) (PARP [1]): potently inhibited
- change in protein Asp/Glu-ADP-ribosylation compared with that of Olaparib (PARP [2]): correlated well

SMILES: NC(=O)c1ccc(I)c([N+](=O)[O-])c1 [Iniparib]
- H2O2-induced hyper-PARylation / PARP activity (immunoblotting) (PARP [1]; 50 μM): little effect
- change in ADP-ribosylation level of most of the identified peptides (PARP [2]; Iniparib 50 μM): less than two fold
- decrease of a peptide from the RNA helicase DDX21 (PARP [2]; Iniparib 50 μM): about 4 fold
- effect on PARP activity in intact cells (PARP [2]; Iniparib 50 μM): negligible effect; also recorded: failed to inhibit PARP
- potency relative to 3-AB (PARP [2]; Iniparib 50 μM, 3-AB 50 μM): lower than the prototype PARP inhibitor 3-AB

SMILES: O=C(c1cc(Cc2n[nH]c(=O)c3ccccc23)ccc1F)N1CCN(C(=O)C2CC2)CC1 [Olaparib]
- increased PARylation after MNNG or H2O2 treatment (PARP [1]; PARG-depleted cells, pretreatment with the inhibitor): blocked
- decrease of a peptide from the RNA helicase DDX21 (PARP [2]; 1 μM Olaparib): more than 11 fold
- modified peptides whose intensity decreased by more than two-fold (PARP [2]; 1 μM Olaparib 40 min pretreatment, 2 mM H2O2 5 min, HCT116 shPARG): more than 81%
- ADP-ribosylation of two evolutionarily conserved Glu residues on PCNA (PARP [2]; [3]): dramatically decreased
- ADP-ribosylation of two tankyrase substrates, CASC3 and BLZF1 (PARP [2]; [3]): little change
- decrease in level of PARP1 automodified peptide comprising E483 (PARP [2]; [3]): approximately 120 fold
- sensitivity of the majority of PARylation events to treatment (PARP [2]; quantitative mass spectrometric analysis): sensitive
- inhibition of tankyrase (tankyrase): does not inhibit

SMILES: NC(=O)c1cccc2[nH]c(-c3ccc([C@@H]4CCCN4)cc3F)nc12 [A96692]
- H2O2-induced PARP activation (immunoblotting) (PARP [1]): potently inhibited
- change in protein Asp/Glu-ADP-ribosylation compared with that of Olaparib (PARP [2]): correlated well
